Consider one compound from publication PMC9320886, “Daily Intraperitoneal Administration of Rosiglitazone Does Not Improve Lung Function or Alveolarization in Preterm Rabbits Exposed to Hyperoxia” (Pharmaceutics, 2022).

A word on the Papp B→A: it is how fast a substance crosses the layer from the basolateral side. As usually defined, the fraction unbound is free concentration divided by total concentration.

Data set [1] is described as follows: Caco-2 permeability assay. The settings on record: human, basolateral to apical. The format is in vitro ADME.
A short description of data set [2]: plasma protein binding by equilibrium dialysis. Format: in vitro ADME. Further details: fraction unbound at 4 h: dose or concentration left out as unconfirmed. The following applies: both sexes, New Zealand White, preterm rabbit plasma (pooled), 37 °C. As for the experimental part:
In vitro plasma protein binding was determined in preterm rabbit plasma (New Zealand White Pooled Gender, BIOIVT, Hicksville, NY, USA) by equilibrium dialysis using Thermo Fisher Scientific Pierce RED rapid equilibrium dialysis devices (Device Inserts 8K MWCO, Thermo Fisher Scientific, Waltham, MA, USA). The assay was performed using a Tecan Evoware robotic system (Männedorf, Switzerland). Test compounds and the positive control were diluted in the pooled plasma (three donors) to a final concentration of […] and then dispensed into the red chamber of the RED device inserts. Phosphate-Buffered Saline (PBS, from Merck KGaA, Darmstadt, Germany) was dispensed into the other side. Upon completion of 4 h of incubation (37 °C under shaking), equal aliquots were removed from each chamber and matrix matched with even volumes of plasma or buffer for LC-MS/MS analyses.
Free and Bound percentages of the compounds were calculated as follows:(1) %Free=Area buffer sample/Area plasma sample×100 (2) % Bound=100−%Free
A general note: In equilibrium dialysis free small molecules cross a membrane that holds back macromolecules.

A further data set deals with newborn rats. Further details: method as in PMID 19262292. The following applies: single (24 h) and repeated (7 days) administration, 0.1–8 mg/kg; cited from earlier work.

SMILES strings stand for the structures. Where two headings read alike, the source gives them in different places.

As for `CN(CCOc1ccc(CC2SC(=O)NC2=O)cc1)c1ccccn1` (stereo not shown) [RGZ, rosiglitazone], the apparent permeability from basolateral to apical (Papp B→A) at 2 h, 10 µM in data set [1] (Caco-2, pH 7.4, with Elacridar (GF120918), concentration not given, with Elacridar, read-out: Papp with Pgp Inhibitor (B–A) (converted)) was 11.4 ×10⁻⁶ cm/s; in data set [1] (Caco-2, pH 7.4, 2 h, without Pgp inhibitor, read-out: Papp (B–A) (converted)) it was 10 ×10⁻⁶ cm/s. Also, in data set [2], the fraction unbound at 4 h is 0.025. Also, the “serum cholesterol and triglycerides levels” value in the data set on newborn rats is “remained unchanged”.
